# Data published in ChEMBL document CHEMBL5113395, “Azetidin-2-one-based small molecules as dual hHDAC6/HDAC8 inhibitors: Investigation of their mechanism of action and impact of dual inhibition profile on cell viability” (Eur J Med Chem, 2022).
# Experiments:
# Assay type in all cases: toxicity, tissue-based
# [1] = Cardiotoxicity in Langendorff-perfused Wistar rat heart assessed as effect on RR time at 10 uM by ECG analysis (reference value: 239.5+/-9.2 milliseconds)
# [2] = Cardiotoxicity in Langendorff-perfused Wistar rat heart assessed as effect on QRS interval time at 1 uM by ECG analysis (reference value: 13.3+/-0.6 milliseconds)
# [3] = Cardiotoxicity in Langendorff-perfused Wistar rat heart assessed as effect on QT interval time at 10 uM by ECG analysis (reference value: 66.1+/-1.1 milliseconds)
# [4] = Cardiotoxicity in Langendorff-perfused Wistar rat heart assessed as effect on PQ interval time at 0.01 uM by ECG analysis (reference value: 45.4+/-3.9 milliseconds)
# [5] = Cardiotoxicity in Langendorff-perfused Wistar rat heart assessed as effect on QTc interval time at 0.1 uM by ECG analysis (reference value: 66.4+/-1.3 milliseconds)
# [6] = Cardiotoxicity in Langendorff-perfused Wistar rat heart assessed as effect on PQ interval time at 0.1 uM by ECG analysis (reference value: 45.4+/-3.9 milliseconds)
compound,measurement,setting,value
O=C(NO)c1ccc(CNC(=O)N2CCC(N3CC(c4ccccc4)(c4ccccc4)C3=O)CC2)cc1,Time,[1],241.5 ms
same,Time,[2],13.9 ms
same,Time,[3],68.5 ms
same,Time,[4],44.4 ms
same,Time,[5],68.2 ms
same,Time,[6],44.9 ms
